From ChEMBL document CHEMBL4373740, “Synthesis and biological evaluation of new MET inhibitors with 1,6-naphthyridinone scaffold” (Eur J Med Chem, 2020)

Key:
Angiopoietin-1 receptor = Angiopoietin-1 receptor (Homo sapiens, UniProt Q02763); assay: Inhibition of recombinant human GST-tagged TEK (817 to 1101 residues) expressed in baculovirus expression system using biotin as substrate preincubated for 5 mins followed by substrate addition and measured after 30 to 60 mins in presence of ATP by HTRF assay
[1] = molecular target: Tyrosine-protein kinase receptor TYRO3 (Homo sapiens, UniProt Q06418); assay: (§1) Inhibition of recombinant human GST-tagged RSE catalytic domain (451 to 890 residues) expressed in baculovirus expression system using biotin as substrate preincubated for 5 mins followed by substrate addition and measured after 30 to 60 mins in presence of ATP by HTRF assay
[2] = Antiproliferative activity against human NIH-H460 cells at 10 uM incubated for 72 hrs by MTT assay relative to control; type: functional; conditions: NIH-H460, 72 h
HT-29 = assay: Antiproliferative activity against human HT-29 cells at 10 uM incubated for 72 hrs by MTT assay relative to control; type: functional; conditions: HT-29, 72 h
[3] = Half life in Sprague-Dawley rat at 1.0 mg/kg, iv measured for 5 min to 72 hrs by LC-MS/MS analysis; type: ADME, organism-based; conditions: in vivo
[4] = Half life in Sprague-Dawley rat at 5.0 mg/kg, ig measured for 15 min to 72 hrs by LC-MS/MS analysis; type: ADME, organism-based; conditions: in vivo, po
[5] = Cmax in Sprague-Dawley rat at 1.0 mg/kg, iv measured for 5 min to 72 hrs by LC-MS/MS analysis; type: ADME, organism-based; set-up: dose 1 mg/kg, route intravenous; conditions: in vivo
[6] = Cmax in Sprague-Dawley rat at 5.0 mg/kg, ig measured for 15 min to 72 hrs by LC-MS/MS analysis; type: ADME, organism-based; set-up: dose 5 mg/kg, route intragastric; conditions: in vivo, po
[7] = Clearance in Sprague-Dawley rat at 1.0 mg/kg, iv measured for 5 min to 72 hrs by LC-MS/MS analysis; type: ADME, organism-based; conditions: in vivo
[8] = Mean residence time in Sprague-Dawley rat at 1.0 mg/kg, iv measured for 5 min to 72 hrs by LC-MS/MS analysis; type: ADME, organism-based; conditions: in vivo
[9] = Mean residence time in Sprague-Dawley rat at 5.0 mg/kg, ig measured for 15 min to 72 hrs by LC-MS/MS analysis; type: ADME, organism-based; conditions: in vivo, po
[10] = molecular target: Tyrosine-protein kinase receptor TYRO3 (Homo sapiens) (UniProt Q06418); assay: as §1, with “system at 1 uM” for “system”, “assay relative to control” for “assay”
[11] = molecular target: Tyrosine-protein kinase Lck (Homo sapiens) (UniProt P06239); assay: Inhibition of recombinant full length human His-tagged LCK expressed in baculovirus expression system at 1 uM using biotin as substrate preincubated for 5 mins followed by substrate addition and measured after 30 to 60 mins in presence of ATP by HTRF assay relative to control
[12] = molecular target: Macrophage-stimulating protein receptor (Homo sapiens, UniProt Q04912); assay: (§2) Inhibition of recombinant human GST-tagged RON expressed in baculovirus system at 1 uM using biotin as substrate preincubated for 5 mins followed by substrate addition and measured after 30 to 60 mins in presence of ATP by HTRF assay relative to control
[13] = molecular target: Tyrosine-protein kinase CSK (Homo sapiens) (UniProt P41240); assay: Inhibition of recombinant full length human His-tagged CSK at 1 uM using biotin as substrate preincubated for 5 mins followed by substrate addition and measured after 30 to 60 mins in presence of ATP by HTRF assay relative to control
Sequence of Tyrosine-protein kinase CSK (Homo sapiens) (P41240 2-450 limits assumed): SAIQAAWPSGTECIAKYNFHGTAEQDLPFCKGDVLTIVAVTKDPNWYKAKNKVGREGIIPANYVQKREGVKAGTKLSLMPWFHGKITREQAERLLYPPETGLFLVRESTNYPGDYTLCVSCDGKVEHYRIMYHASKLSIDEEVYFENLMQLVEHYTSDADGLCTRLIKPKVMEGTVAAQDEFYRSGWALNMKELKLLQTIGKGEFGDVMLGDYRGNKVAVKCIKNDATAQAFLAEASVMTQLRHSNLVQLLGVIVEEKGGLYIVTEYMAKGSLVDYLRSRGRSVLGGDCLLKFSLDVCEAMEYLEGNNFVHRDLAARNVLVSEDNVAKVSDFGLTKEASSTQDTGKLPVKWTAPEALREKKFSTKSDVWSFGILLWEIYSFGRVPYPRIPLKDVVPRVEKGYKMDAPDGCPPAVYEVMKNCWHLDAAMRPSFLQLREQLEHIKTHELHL

[14] = molecular target: Tyrosine-protein kinase Fes/Fps (Homo sapiens) (UniProt P07332); assay: Inhibition of recombinant human His-tagged FES expressed in baculovirus system at 1 uM using biotin as substrate preincubated for 5 mins followed by substrate addition and measured after 30 to 60 mins in presence of ATP by HTRF assay relative to control
[15] = molecular target: Vascular endothelial growth factor receptor 1 (Homo sapiens) (UniProt P17948); assay: as §2, with “FLT1 catalytic domain (781 to 1338 residues)” for “RON”, “baculovirus expression” for “baculovirus”
[16] = molecular target: Vascular endothelial growth factor receptor 3 (Homo sapiens, UniProt P35916); assay: as §2, with “FLT4 catalytic domain (800 to 1297 residues)” for “RON”, “baculovirus expression” for “baculovirus”
[17] = molecular target: Tyrosine-protein kinase Lyn (Homo sapiens) (UniProt P07948); assay: Inhibition of recombinant human N-terminal GST-tagged LYN A expressed in insect cells at 1 uM using biotin as substrate preincubated for 5 mins followed by substrate addition and measured after 30 to 60 mins in presence of ATP by HTRF assay relative to control
Sequence of Tyrosine-protein kinase Lyn (Homo sapiens) (P07948 2-512 limits assumed): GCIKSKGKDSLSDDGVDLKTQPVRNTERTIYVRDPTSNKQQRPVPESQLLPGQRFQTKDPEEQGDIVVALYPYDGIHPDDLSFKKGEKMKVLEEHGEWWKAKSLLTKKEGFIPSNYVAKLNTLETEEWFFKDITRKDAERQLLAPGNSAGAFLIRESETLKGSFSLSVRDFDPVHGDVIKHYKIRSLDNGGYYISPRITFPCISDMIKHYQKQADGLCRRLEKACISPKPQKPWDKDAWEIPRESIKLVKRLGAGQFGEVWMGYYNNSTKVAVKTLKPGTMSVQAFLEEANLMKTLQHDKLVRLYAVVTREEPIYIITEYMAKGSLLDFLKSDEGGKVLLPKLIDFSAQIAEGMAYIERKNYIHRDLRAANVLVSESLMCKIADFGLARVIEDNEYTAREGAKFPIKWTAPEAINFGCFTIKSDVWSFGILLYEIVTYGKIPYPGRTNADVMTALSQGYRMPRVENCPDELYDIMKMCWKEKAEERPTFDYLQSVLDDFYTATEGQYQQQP

[18] = molecular target: Tyrosine-protein kinase Lyn (Homo sapiens) (UniProt P07948); assay: Inhibition of recombinant full length human GST-tagged LYN B expressed in baculovirus expression system at 1 uM using biotin as substrate preincubated for 5 mins followed by substrate addition and measured after 30 to 60 mins in presence of ATP by HTRF assay relative to control
[19] = molecular target: Mitogen-activated protein kinase 14 (Homo sapiens) (UniProt Q16539); assay: Inhibition of recombinant full length human GST-tagged MAPK14 expressed in Escherichia coli at 1 uM using biotin as substrate preincubated for 5 mins followed by substrate addition and measured after 30 to 60 mins in presence of ATP by HTRF assay relative to control
Sequence of Mitogen-activated protein kinase 14 (Homo sapiens) (Q16539 whole entry): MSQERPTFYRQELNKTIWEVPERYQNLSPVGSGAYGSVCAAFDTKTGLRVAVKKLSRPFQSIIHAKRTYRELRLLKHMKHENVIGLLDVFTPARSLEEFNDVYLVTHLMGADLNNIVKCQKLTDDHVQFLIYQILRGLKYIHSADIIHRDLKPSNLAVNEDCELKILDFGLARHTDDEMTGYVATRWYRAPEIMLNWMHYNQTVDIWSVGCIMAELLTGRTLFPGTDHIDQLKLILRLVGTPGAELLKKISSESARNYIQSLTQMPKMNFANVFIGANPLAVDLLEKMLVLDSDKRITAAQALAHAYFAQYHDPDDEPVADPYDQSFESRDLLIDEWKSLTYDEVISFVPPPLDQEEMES

[20] = molecular target: Serine/threonine-protein kinase PLK3 (Homo sapiens) (UniProt Q9H4B4); assay: Inhibition of recombinant full length human GST-tagged PLK3 expressed in baculovirus expression system at 1 uM using biotin as substrate preincubated for 5 mins followed by substrate addition and measured after 30 to 60 mins in presence of ATP by HTRF assay relative to control
Sequence of Serine/threonine-protein kinase PLK3 (Homo sapiens) (Q9H4B4 whole entry, looked up): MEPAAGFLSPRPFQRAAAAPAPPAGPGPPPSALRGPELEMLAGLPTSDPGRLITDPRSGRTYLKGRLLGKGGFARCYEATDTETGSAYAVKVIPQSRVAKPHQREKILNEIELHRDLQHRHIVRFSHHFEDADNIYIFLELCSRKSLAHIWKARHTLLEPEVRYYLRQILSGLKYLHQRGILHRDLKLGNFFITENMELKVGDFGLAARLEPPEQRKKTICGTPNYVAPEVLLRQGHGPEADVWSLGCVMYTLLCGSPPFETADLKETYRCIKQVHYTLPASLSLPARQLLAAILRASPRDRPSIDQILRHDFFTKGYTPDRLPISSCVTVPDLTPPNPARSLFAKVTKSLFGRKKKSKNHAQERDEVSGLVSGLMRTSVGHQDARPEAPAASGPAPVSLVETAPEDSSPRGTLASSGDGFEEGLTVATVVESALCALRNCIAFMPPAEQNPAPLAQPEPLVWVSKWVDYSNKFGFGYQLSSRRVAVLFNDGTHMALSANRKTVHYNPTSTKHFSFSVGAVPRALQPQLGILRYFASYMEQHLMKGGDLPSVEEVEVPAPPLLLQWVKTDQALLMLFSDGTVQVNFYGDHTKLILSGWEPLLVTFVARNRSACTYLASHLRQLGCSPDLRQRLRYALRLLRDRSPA

[21] = molecular target: cAMP-dependent protein kinase catalytic subunit alpha (Homo sapiens) (UniProt P17612); assay: Inhibition of recombinant full length human His-tagged PRKACA expressed in Escherichia coli at 1 uM using biotin as substrate preincubated for 5 mins followed by substrate addition and measured after 30 to 60 mins in presence of ATP by HTRF assay relative to control
[22] = molecular target: Proto-oncogene tyrosine-protein kinase ROS (Homo sapiens) (UniProt P08922); assay: as §2, with “ROS1 catalytic domain (1883 to 2347 residues)” for “RON”, “baculovirus expression” for “baculovirus”
Sequence of Proto-oncogene tyrosine-protein kinase ROS (Homo sapiens) (P08922 whole entry, the tested form may be a part): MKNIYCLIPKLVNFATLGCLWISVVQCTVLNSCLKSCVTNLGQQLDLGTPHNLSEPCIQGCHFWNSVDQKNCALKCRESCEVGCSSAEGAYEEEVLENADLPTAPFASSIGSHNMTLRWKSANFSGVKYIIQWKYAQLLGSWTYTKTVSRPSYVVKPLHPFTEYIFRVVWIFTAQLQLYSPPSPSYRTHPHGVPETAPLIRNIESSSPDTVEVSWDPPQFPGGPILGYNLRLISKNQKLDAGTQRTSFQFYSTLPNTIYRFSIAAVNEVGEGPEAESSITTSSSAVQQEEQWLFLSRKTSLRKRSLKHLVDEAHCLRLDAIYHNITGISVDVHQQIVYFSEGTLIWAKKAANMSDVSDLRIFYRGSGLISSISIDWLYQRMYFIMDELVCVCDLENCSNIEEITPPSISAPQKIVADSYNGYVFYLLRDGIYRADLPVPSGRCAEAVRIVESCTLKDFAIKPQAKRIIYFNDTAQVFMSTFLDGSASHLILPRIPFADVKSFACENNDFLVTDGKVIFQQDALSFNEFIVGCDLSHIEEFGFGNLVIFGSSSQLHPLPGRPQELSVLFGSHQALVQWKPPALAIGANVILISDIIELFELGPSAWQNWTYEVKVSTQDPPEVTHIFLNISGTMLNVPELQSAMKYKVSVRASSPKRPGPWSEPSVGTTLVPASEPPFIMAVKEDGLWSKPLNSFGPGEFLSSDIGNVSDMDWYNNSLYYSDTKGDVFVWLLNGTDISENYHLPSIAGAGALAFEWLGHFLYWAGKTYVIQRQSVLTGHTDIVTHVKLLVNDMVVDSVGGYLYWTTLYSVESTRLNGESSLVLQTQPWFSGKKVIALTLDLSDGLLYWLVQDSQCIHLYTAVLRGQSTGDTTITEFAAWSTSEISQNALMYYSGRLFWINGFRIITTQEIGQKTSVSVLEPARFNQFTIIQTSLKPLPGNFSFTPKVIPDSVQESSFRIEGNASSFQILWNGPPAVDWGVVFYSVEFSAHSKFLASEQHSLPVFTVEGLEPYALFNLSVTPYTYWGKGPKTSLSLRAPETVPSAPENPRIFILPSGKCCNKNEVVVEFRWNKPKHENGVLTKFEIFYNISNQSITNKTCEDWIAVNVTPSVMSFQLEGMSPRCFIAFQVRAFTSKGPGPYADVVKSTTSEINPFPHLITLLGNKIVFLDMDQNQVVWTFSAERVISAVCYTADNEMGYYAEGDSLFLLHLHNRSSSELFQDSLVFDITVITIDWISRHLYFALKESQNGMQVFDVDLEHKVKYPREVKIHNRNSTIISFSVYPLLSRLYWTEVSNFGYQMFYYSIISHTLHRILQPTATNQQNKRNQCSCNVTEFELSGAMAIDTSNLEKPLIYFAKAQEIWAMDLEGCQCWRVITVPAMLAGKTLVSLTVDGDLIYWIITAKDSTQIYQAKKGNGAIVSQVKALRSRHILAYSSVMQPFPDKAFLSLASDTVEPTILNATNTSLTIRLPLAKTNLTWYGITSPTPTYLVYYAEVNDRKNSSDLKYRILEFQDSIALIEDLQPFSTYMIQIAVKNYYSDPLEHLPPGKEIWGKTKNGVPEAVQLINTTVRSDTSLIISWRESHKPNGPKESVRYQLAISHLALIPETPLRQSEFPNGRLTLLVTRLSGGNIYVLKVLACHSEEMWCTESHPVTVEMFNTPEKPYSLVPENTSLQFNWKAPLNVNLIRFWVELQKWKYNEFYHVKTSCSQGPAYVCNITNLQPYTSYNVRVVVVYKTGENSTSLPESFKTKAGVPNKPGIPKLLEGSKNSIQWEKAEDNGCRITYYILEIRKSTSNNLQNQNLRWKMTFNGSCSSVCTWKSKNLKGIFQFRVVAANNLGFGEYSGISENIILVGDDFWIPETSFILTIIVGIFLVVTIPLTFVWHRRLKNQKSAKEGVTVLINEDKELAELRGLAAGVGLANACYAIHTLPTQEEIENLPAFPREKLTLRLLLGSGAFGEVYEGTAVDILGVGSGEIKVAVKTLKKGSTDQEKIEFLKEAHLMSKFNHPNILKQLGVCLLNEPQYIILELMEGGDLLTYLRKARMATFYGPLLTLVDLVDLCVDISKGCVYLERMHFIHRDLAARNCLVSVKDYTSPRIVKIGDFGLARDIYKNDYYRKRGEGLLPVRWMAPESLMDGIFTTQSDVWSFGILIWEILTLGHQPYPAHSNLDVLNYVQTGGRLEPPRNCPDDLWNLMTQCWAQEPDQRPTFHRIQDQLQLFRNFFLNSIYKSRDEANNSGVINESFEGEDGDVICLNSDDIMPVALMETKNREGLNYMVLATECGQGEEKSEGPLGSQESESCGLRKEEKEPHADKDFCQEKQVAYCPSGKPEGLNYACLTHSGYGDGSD

[23] = molecular target: Proto-oncogene tyrosine-protein kinase Src (Homo sapiens) (UniProt P12931); assay: Inhibition of recombinant full length human untagged SRC expressed in baculovirus expression system at 1 uM using biotin as substrate preincubated for 5 mins followed by substrate addition and measured after 30 to 60 mins in presence of ATP by HTRF assay relative to control
[24] = molecular target: Serine/threonine-protein kinase TBK1 (Homo sapiens) (UniProt Q9UHD2); assay: Inhibition of recombinant full length human GST-tagged TBK1 expressed in insect cells at 1 uM using biotin as substrate preincubated for 5 mins followed by substrate addition and measured after 30 to 60 mins in presence of ATP by HTRF assay relative to control
Sequence of Serine/threonine-protein kinase TBK1 (Homo sapiens) (Q9UHD2 whole entry): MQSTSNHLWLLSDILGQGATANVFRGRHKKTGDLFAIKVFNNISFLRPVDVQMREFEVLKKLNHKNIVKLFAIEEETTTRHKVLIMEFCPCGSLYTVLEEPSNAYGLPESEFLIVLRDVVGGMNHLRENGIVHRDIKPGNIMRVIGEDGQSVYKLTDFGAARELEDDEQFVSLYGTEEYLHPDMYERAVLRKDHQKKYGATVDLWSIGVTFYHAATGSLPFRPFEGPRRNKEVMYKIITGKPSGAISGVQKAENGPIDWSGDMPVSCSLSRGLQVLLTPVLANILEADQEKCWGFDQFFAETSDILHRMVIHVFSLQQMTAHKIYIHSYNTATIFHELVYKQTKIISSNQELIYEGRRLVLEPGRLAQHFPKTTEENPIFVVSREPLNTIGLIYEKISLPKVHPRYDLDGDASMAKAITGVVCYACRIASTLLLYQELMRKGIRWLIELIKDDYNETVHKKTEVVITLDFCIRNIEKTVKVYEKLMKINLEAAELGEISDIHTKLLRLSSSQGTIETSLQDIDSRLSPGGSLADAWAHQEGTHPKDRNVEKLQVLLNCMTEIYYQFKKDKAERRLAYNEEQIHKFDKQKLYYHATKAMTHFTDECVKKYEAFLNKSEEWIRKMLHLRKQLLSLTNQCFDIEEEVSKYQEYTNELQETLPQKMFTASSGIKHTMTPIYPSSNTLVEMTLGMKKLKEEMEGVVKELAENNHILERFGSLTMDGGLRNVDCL

in vitro = conditions: human, liver microsomes

IC50 (Angiopoietin-1 receptor): 26.3 nM | IC50 [1]: 41.1 nM | half-life [3]: 1520 min | half-life [4]: 1240 min | Cmax [5]: 6500 ng/mL | Cmax [6]: 7800 ng/mL | clearance [7]: 0.167 mL/min/kg | MRT [8]: 10.8 h | MRT [9]: 32.4 h | inhibition [10]: > 80% | inhibition [11]: 50 to 79% | inhibition [12]: 50 to 79% | inhibition [13]: < 50% | inhibition [14]: < 50% | inhibition [15]: < 50% | inhibition [16]: < 50% | inhibition [17]: < 50% | inhibition [18]: < 50% | inhibition [19]: < 50% | inhibition [20]: < 50% | inhibition [21]: < 50% | inhibition [22]: < 50% | inhibition [23]: < 50% | inhibition [24]: < 50% | half-life (in vitro): 883 min
Structure (SMILES): Cn1cc(-c2ccc(F)cc2)c(=O)c2c(Nc3ccc(Oc4ccnc(NC(=O)C5CC5)c4)c(F)c3)nccc21
inhibition at 10 µM [2]: 15.6% | inhibition at 10 µM (HT-29): 24.8%
